From ChEMBL document CHEMBL2176906, “Diterpenoids isolated from Sideritis species protect astrocytes against oxidative stress via Nrf2” (J Nat Prod, 2012)
Active and inactive are the calls of the source. No cut-off for these calls is given here.

Tested on: U373 MG
Experiment: Induction of total GPx activity in human U373MG cells assessed as […] per mg protein preincubated at 10 uM for 24 hrs before H2O2 challenge by fluorimetric method (reference value: 58.5 +/- 5.1 nmol/min/mg protein)
Type: functional, U-373MG ATCC
Conditions: not given
In the case of `CC1(C)CCC[C@]2(C)[C@@H]1C[C@H](O)[C@@]13C=C[C@@](CO)(C1)[C@H](O)C[C@@H]23` [CONCHITRIOL], the Activity is reported as 52.6 nmol/min.

Tested on: U373 MG
Experiment: Induction of SOD activity in human U373MG cells assessed per mg protein preincubated at 5 uM for 24 hrs before H2O2 challenge by fluorimetric method (reference value: 14.2 +/- 3 UI/mg protein)
Type: functional, U-373MG ATCC
Conditions: not given
`CC1(C)CCC[C@]2(C)[C@@H]1C[C@H](O)[C@@]13C=C[C@@](CO)(C1)[C@H](O)C[C@@H]23` [CONCHITRIOL] gave an Activity of 15 IU.

Tested on: U373 MG
Experiment: Inhibition of H2O2-induced oxidative stress in human U373MG cells assessed as GSSG level per mg protein at 10 uM by fluorimetric method (reference value: 9.2 +/- 0.9 nmol/mg protein)
Type: functional, U-373MG ATCC
Conditions: not given
With `CC1(C)CCC[C@]2(C)[C@@H]1C[C@H](O)[C@@]13C=C[C@@](CO)(C1)[C@H](O)C[C@@H]23` [CONCHITRIOL] the Activity was 8.6 nmol.

Tested on: U373 MG
Experiment: Induction of Glutathione reductase activity in human U373MG cells assessed as […] per mg protein preincubated at 10 uM for 24 hrs before H2O2 challenge by fluorimetric method (reference value: 9.3 +/- 2.2 nmol/min/mg protein)
Type: functional, U-373MG ATCC
Conditions: not given
For `CC1(C)CCC[C@]2(C)[C@@H]1C[C@H](O)[C@@]13C=C[C@@](CO)(C1)[C@H](O)C[C@@H]23` [CONCHITRIOL], the Activity was 10.2 nmol/min.

Target: T1, Nuclear factor erythroid 2-related factor 2 (Homo sapiens) (UniProt Q16236)
T1 sequence (whole entry): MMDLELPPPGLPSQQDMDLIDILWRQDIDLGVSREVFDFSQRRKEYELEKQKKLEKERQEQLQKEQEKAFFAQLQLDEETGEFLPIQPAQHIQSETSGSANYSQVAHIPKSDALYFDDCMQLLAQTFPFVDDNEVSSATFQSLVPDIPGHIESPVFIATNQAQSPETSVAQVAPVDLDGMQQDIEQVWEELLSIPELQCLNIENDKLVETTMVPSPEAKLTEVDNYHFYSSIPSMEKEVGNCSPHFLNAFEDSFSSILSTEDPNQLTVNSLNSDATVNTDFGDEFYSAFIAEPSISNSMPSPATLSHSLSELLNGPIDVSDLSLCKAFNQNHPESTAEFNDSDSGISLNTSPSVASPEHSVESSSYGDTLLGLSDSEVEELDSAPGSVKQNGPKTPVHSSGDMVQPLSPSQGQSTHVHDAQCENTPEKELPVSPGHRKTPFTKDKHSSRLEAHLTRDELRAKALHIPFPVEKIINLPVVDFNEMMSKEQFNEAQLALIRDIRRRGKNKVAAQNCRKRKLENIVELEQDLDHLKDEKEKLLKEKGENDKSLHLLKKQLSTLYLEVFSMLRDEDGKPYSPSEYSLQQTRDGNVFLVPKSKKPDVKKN
Experiment: Induction of Nrf2-mediated CAT protein expression in H2O2-stimulated human U373MG cells preincubated at 10 uM for 24 hrs before H2O2 challenge by Western blot method
Type: cell-based
Conditions: U-373MG ATCC
With `CC1(C)CCC[C@]2(C)[C@@H]1C[C@H](O)[C@@]13C=C[C@@](CO)(C1)[C@H](O)C[C@@H]23` [CONCHITRIOL] the Activity was “inactive”.

Tested on: U373 MG
Experiment: Induction of CAT activity in human U373MG cells assessed per mg protein preincubated at 5 uM for 24 hrs before H2O2 challenge by fluorimetric method (reference value: 18.9 +/- 0.4 UI/mg protein)
Type: functional, U-373MG ATCC
Conditions: not given
With `CC1(C)CCC[C@]2(C)[C@@H]1C[C@H](O)[C@@]13C=C[C@@](CO)(C1)[C@H](O)C[C@@H]23` [CONCHITRIOL] the Activity was 18.8 IU.

Tested on: U373 MG
Experiment: Induction of HO-1 activity in human U373MG cells assessed as bilirubin production per mg protein preincubated at 10 uM for 24 hrs before H2O2 challenge by fluorimetric method (reference value: 19.6 +/-3.5 pmol/hr/mg protein)
Type: functional, U-373MG ATCC
Conditions: not given
With `CC1(C)CCC[C@]2(C)[C@@H]1C[C@H](O)[C@@]13C=C[C@@](CO)(C1)[C@H](O)C[C@@H]23` [CONCHITRIOL] the Activity was 17.8 pmol/h.

Target: T1, Nuclear factor erythroid 2-related factor 2 (Homo sapiens)
Experiment: Induction of Nrf2-mediated SOD protein expression in H2O2-stimulated human U373MG cells preincubated at 10 uM for 24 hrs before H2O2 challenge by Western blot method
Type: cell-based
Conditions: U-373MG ATCC
For `CC1(C)CCC[C@]2(C)[C@@H]1C[C@H](O)[C@@]13C=C[C@@](CO)(C1)[C@H](O)C[C@@H]23` [CONCHITRIOL], the Activity was “inactive”.

Tested on: U373 MG
Experiment: Inhibition of H2O2-induced oxidative stress in human U373MG cells assessed as GSH level per mg protein at 5 uM by fluorimetric method (reference value: 17.1 +/- 1.7 nmol/mg protein)
Type: functional, U-373MG ATCC
Conditions: not given
`CC1(C)CCC[C@]2(C)[C@@H]1C[C@H](O)[C@@]13C=C[C@@](CO)(C1)[C@H](O)C[C@@H]23` [CONCHITRIOL] gave an Activity of 18 nmol.

Tested on: U373 MG
Experiment: Inhibition of H2O2-induced oxidative stress in human U373MG cells assessed as GSH/GSSG ratio at 5 uM (reference value: 1.8 +/- 0.1 )
Type: functional, U-373MG ATCC
Conditions: not given
`CC1(C)CCC[C@]2(C)[C@@H]1C[C@H](O)[C@@]13C=C[C@@](CO)(C1)[C@H](O)C[C@@H]23` [CONCHITRIOL] gave a Ratio of 2.

Tested on: U373 MG
Experiment: Inhibition of H2O2-induced oxidative stress in human U373MG cells assessed as GSSG level per mg protein at 5 uM by fluorimetric method (reference value: 9.2 +/- 0.9 nmol/mg protein)
Type: functional, U-373MG ATCC
Conditions: not given
`CC1(C)CCC[C@]2(C)[C@@H]1C[C@H](O)[C@@]13C=C[C@@](CO)(C1)[C@H](O)C[C@@H]23` [CONCHITRIOL] showed an Activity of 8.9 nmol.

Tested on: U373 MG
Experiment: Inhibition of AAPH-induced oxidative stress in human U373MG cells assessed as peroxy radical scavenging activity at 10 uM by ORAC assay
Type: functional, cell-based
Conditions: U-373MG ATCC
In the case of `CC1(C)CCC[C@]2(C)[C@@H]1C[C@H](O)[C@@]13C=C[C@@](CO)(C1)[C@H](O)C[C@@H]23` [CONCHITRIOL], the Activity is reported as “inactive”.

Tested on: U-373MG ATCC
Experiment: Antioxidant activity in human U373MG cells assessed as reduction in H2O2-induced morphological changes preincubated at 5 uM for 24 hrs before H2O2 challenge by phase-contrast microscopy
Type: functional, cell-based
Conditions: not given
For `CC1(C)CCC[C@]2(C)[C@@H]1C[C@H](O)[C@@]13C=C[C@@](CO)(C1)[C@H](O)C[C@@H]23` [CONCHITRIOL], the Activity was “Active”.

Target: T1, Nuclear factor erythroid 2-related factor 2 (Homo sapiens)
Experiment: Induction of Nrf2-mediated GPx protein expression in H2O2-stimulated human U373MG cells preincubated at 5 uM for 24 hrs before H2O2 challenge by Western blot method
Type: cell-based
Conditions: U-373MG ATCC
For `CC1(C)CCC[C@]2(C)[C@@H]1C[C@H](O)[C@@]13C=C[C@@](CO)(C1)[C@H](O)C[C@@H]23` [CONCHITRIOL], the Activity was “inactive”.

Target: T1, Nuclear factor erythroid 2-related factor 2 (Homo sapiens)
Experiment: Induction of Nrf2-mediated GPx protein expression in H2O2-stimulated human U373MG cells preincubated at 10 uM for 24 hrs before H2O2 challenge by Western blot method
Type: cell-based
Conditions: U-373MG ATCC
With `CC1(C)CCC[C@]2(C)[C@@H]1C[C@H](O)[C@@]13C=C[C@@](CO)(C1)[C@H](O)C[C@@H]23` [CONCHITRIOL] the Activity was “inactive”.

Tested on: U373 MG
Experiment: Inhibition of H2O2-induced oxidative stress in human U373MG cells assessed as GSH level per mg protein at 10 uM by fluorimetric method (reference value: 17.1 +/- 1.7 nmol/mg protein)
Type: functional, U-373MG ATCC
Conditions: not given
For `CC1(C)CCC[C@]2(C)[C@@H]1C[C@H](O)[C@@]13C=C[C@@](CO)(C1)[C@H](O)C[C@@H]23` [CONCHITRIOL], the Activity was 19.8 nmol.

Tested on: U373 MG
Experiment: Induction of selenium-dependent GPx activity in human U373MG cells assessed as […] per mg protein preincubated at 5 uM for 24 hrs before H2O2 challenge by fluorimetric method (reference value: 14.7 +/- 2.9 nmol/min/mg protein)
Type: functional, U-373MG ATCC
Conditions: not given
For `CC1(C)CCC[C@]2(C)[C@@H]1C[C@H](O)[C@@]13C=C[C@@](CO)(C1)[C@H](O)C[C@@H]23` [CONCHITRIOL], the Activity was 17.6 nmol/min.

Tested on: U373 MG
Experiment: Induction of Nrf2 nuclear protein expression in H2O2-stimulated human U373MG cells preincubated at 10 uM for 24 hrs before H2O2 challenge by Western blot method
Type: functional, cell-based
Conditions: U-373MG ATCC
For `CC1(C)CCC[C@]2(C)[C@@H]1C[C@H](O)[C@@]13C=C[C@@](CO)(C1)[C@H](O)C[C@@H]23` [CONCHITRIOL], the Activity was “inactive”.

Tested on: U373 MG
Experiment: Induction of Glutathione reductase activity in human U373MG cells assessed as […] per mg protein preincubated at 5 uM for 24 hrs before H2O2 challenge by fluorimetric method (reference value: 9.3 +/- 2.2 nmol/min/mg protein)
Type: functional, U-373MG ATCC
Conditions: not given
`CC1(C)CCC[C@]2(C)[C@@H]1C[C@H](O)[C@@]13C=C[C@@](CO)(C1)[C@H](O)C[C@@H]23` [CONCHITRIOL] showed an Activity of 8.2 nmol/min.

Target: T1, Nuclear factor erythroid 2-related factor 2 (Homo sapiens)
Experiment: Induction of Nrf2-mediated CAT protein expression in H2O2-stimulated human U373MG cells preincubated at 5 uM for 24 hrs before H2O2 challenge by Western blot method
Type: cell-based
Conditions: U-373MG ATCC
With `CC1(C)CCC[C@]2(C)[C@@H]1C[C@H](O)[C@@]13C=C[C@@](CO)(C1)[C@H](O)C[C@@H]23` [CONCHITRIOL] the Activity was “inactive”.

Tested on: U373 MG
Experiment: Induction of ROS production in human U373MG cells at 5 uM after 24 hrs by DCFH-DA assay
Type: functional, cell-based
Conditions: U-373MG ATCC
With `CC1(C)CCC[C@]2(C)[C@@H]1C[C@H](O)[C@@]13C=C[C@@](CO)(C1)[C@H](O)C[C@@H]23` [CONCHITRIOL] the Activity was “inactive”.

Tested on: U373 MG
Experiment: Induction of selenium-dependent GPx activity in human U373MG cells assessed as […] per mg protein preincubated at 10 uM for 24 hrs before H2O2 challenge by fluorimetric method (reference value: 14.7 +/- 2.9 nmol/min/mg protein)
Type: functional, U-373MG ATCC
Conditions: not given
`CC1(C)CCC[C@]2(C)[C@@H]1C[C@H](O)[C@@]13C=C[C@@](CO)(C1)[C@H](O)C[C@@H]23` [CONCHITRIOL] gave an Activity of 19.4 nmol/min.

Tested on: not listed separately
Experiment: Cytotoxicity against human U373MG cells assessed as LDH release at 1 to 10 uM after 24 hrs by LDH assay
Type: cell-based
Conditions: u-373mg atcc
In the case of `CC1(C)CCC[C@]2(C)[C@@H]1C[C@H](O)[C@@]13C=C[C@@](CO)(C1)[C@H](O)C[C@@H]23` [CONCHITRIOL], the Activity is reported as < 10%.

Tested on: not listed separately
Experiment: Cytotoxicity against human U373MG cells assessed as dye reduction at 1 to 10 uM after 24 hrs by MTT assay
Type: cell-based, U-373MG ATCC
Conditions: read-out: Activity
In the case of `CC1(C)CCC[C@]2(C)[C@@H]1C[C@H](O)[C@@]13C=C[C@@](CO)(C1)[C@H](O)C[C@@H]23` [CONCHITRIOL], the viability at 24 h, up to 10 µM is reported as 90%.

Target: T1, Nuclear factor erythroid 2-related factor 2 (Homo sapiens)
Experiment: Induction of Nrf2-mediated SOD protein expression in H2O2-stimulated human U373MG cells preincubated at 5 uM for 24 hrs before H2O2 challenge by Western blot method
Type: cell-based
Conditions: U-373MG ATCC
In the case of `CC1(C)CCC[C@]2(C)[C@@H]1C[C@H](O)[C@@]13C=C[C@@](CO)(C1)[C@H](O)C[C@@H]23` [CONCHITRIOL], the Activity is reported as “inactive”.

Tested on: U373 MG
Experiment: Inhibition of H2O2-induced oxidative stress in human U373MG cells assessed as GSH/GSSG ratio at 10 uM (reference value: 1.8 +/- 0.1 )
Type: functional, U-373MG ATCC
Conditions: not given
`CC1(C)CCC[C@]2(C)[C@@H]1C[C@H](O)[C@@]13C=C[C@@](CO)(C1)[C@H](O)C[C@@H]23` [CONCHITRIOL] gave a Ratio of 2.3.

Tested on: U373 MG
Experiment: Induction of ROS production in human U373MG cells at 10 uM after 24 hrs by DCFH-DA assay
Type: functional, cell-based
Conditions: U-373MG ATCC
For `CC1(C)CCC[C@]2(C)[C@@H]1C[C@H](O)[C@@]13C=C[C@@](CO)(C1)[C@H](O)C[C@@H]23` [CONCHITRIOL], the Activity was “inactive”.
